Reference: patent US20260022142A1, “MACROCYCLIC IMMUNOMODULATORS” (Bristol-Myers Squibb Company, priority 2022, published 2026)
Numbered stars: 1 amine (or outer) side, 2 acyl side, 3 side chain; on linkers, the order of the positions; unused ones are H or OH. Bridge positions count the residues as written; N and C are the ends. Square brackets hold non-standard residues; d marks the D form. Peptide text beside a SMILES is read from it. * marks the point of attachment. ξ: configuration not given here. Phe(3-CF3) = N[C@@H](Cc1cccc(C(F)(F)F)c1)C(=O)O; Bip = N[C@@H](Cc1ccc(-c2ccccc2)cc1)C(=O)O; NH(CH2)14COOH = O=C(O)CCCCCCCCCCCCCCN*; Phe(3-Me) = Cc1cccc(C[C@H](N)C(=O)O)c1; Val(3-OH) = CC(C)(O)[C@H](N)C(=O)O; X6 = O=C(Cc1ccc(CN[*:1])cc1)[*:2]; hArg = N=C(N)NCCCC[C@H](N)C(=O)O; Cha = N[C@@H](CC1CCCCC1)C(=O)O; Cit = NC(=O)NCCC[C@H](N)C(=O)O; Thr(3ξ) = CC(O)[C@H](N)C(=O)O; 12Ado = NCCCCCCCCCCCC(=O)O; hSer = N[C@@H](CCO)C(=O)O; Carboxymethyl = O=C(O)C*; NMeA = CN[C@@H](C)C(=O)O; Orn = NCCC[C@H](N)C(=O)O; Aun = NCCCCCCCCCCC(=O)O; Dab = NCC[C@H](N)C(=O)O; Dap = NC[C@H](N)C(=O)O; AEEA = NCCOCCOCC(=O)O

Molecular target: T1, PD-1/PD-L1 interaction (PE-labeled human PD-L1-Ig binding to Jurkat cell line over-expressing human PD-1) (Homo sapiens, UniProt Q15116)
T1 construct: expressed in transfected cells; host or cells: Jurkat
Experiment: Jurkat-PD-1 Cell Binding High-Content Screening Assay (CBA)
Format: cell-based
Settings: Jurkat cell line over-expressing human PD-1; PE-labeled PD-L1-Ig 20 nM final; read-out: Jurkat hPD1-PDL1 IC50
How it was run: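 Jurkat cells stably over-expressing human PD-1 were seeded in DMEM with 10% fetal calf serum and pre-incubated with compound for 2 h at 37° C. PE-labeled human PD-L1-Ig was then added at 20 nM final for 1 hour, after which cells were fixed with paraformaldehyde, Hoechst-stained and imaged by high-content microscopy.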

T1 sequence (Q15116 25-288): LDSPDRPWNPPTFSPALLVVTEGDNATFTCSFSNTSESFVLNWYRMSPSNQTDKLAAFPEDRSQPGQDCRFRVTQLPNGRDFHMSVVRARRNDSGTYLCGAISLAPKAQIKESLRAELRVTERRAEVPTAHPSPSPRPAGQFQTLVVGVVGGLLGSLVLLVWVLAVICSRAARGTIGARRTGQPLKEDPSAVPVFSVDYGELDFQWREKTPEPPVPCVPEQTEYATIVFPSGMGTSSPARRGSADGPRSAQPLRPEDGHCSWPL

Structure (SMILES) | IC50 [µM]
Cc1cccc(C[C@@H]2NC(=O)[C@H](CC(=O)O)NC(=O)[C@H](Cc3ccc(OCC(=O)O)cc3)NC(=O)[C@H](CN)NC(=O)CSC[C@@H](C(=O)N(C)[C@@H](C)C(=O)N[C@@H](CCC(=O)O)C(=O)NCCCCCCCCCCC(=O)O)NC(=O)[C@H]([C@@H](C)O)NC(=O)[C@H](C(C)C)NC(=O)[C@H](CC3CCCCC3)NC(=O)[C@H](CCN)NC(=O)[C@@H](CC(C)C)NC(=O)[C@H](CCCN)NC(=O)[C@H](CCCNC(N)=O)NC(=O)[C@H](Cc3ccc(-c4ccccc4)cc3)NC(=O)[C@H](C(C)C)NC2=O)c1 [Compound 2783] ({CH2CO}-[Dap]Y(Carboxymethyl)D[Phe(3-Me)]V[Bip][Cit][Orn][dL][Dab][Cha]VTC[NMeA]E[Aun]-OH; thioether N-14) | 0.368
CC(C)C[C@H]1NC(=O)[C@H](CCCN)NC(=O)[C@H](Cc2ccc(O)cc2)NC(=O)[C@H](Cc2ccc(-c3ccccc3)cc2)NC(=O)[C@H](C(C)C)NC(=O)[C@H](Cc2c[nH]c3ccccc23)NC(=O)[C@H](CC(=O)O)NC(=O)[C@H](Cc2ccc(OCC(=O)O)cc2)NC(=O)[C@H](CCCNC(=N)N)NC(=O)CSC[C@@H](C(=O)N[C@@H](CCN)C(=O)NCCCCCCCCCCC(=O)O)NC(=O)[C@H](CCCNC(N)=O)NC(=O)[C@H](C(C)C)NC(=O)[C@H](CC2CCCCC2)NC(=O)[C@H](CCN)NC1=O [Compound 3411] ({CH2CO}-RY(Carboxymethyl)DWV[Bip]Y[Orn][dL][Dab][Cha]V[Cit]C[Dab][Aun]-OH; thioether N-14) | 0.011
CC(=O)NCCCC[C@@H]1NC(=O)[C@H](C(C)C)NC(=O)[C@H](CC2CCCCC2)NC(=O)[C@H](CCN)NC(=O)[C@@H](CC(C)C)NC(=O)[C@H](CCCN)NC(=O)[C@H](Cc2ccc(O)cc2)NC(=O)[C@H](Cc2ccc(-c3ccccc3)cc2)NC(=O)[C@H](C(C)C)NC(=O)[C@H](Cc2c[nH]c3ccccc23)NC(=O)[C@H](CC(=O)O)NC(=O)[C@H](Cc2ccc(OCC(=O)O)cc2)NC(=O)[C@H](CCCNC(=N)N)NC(=O)CSC[C@@H](C(=O)N[C@@H](CCN)C(=O)NCCCCCCCCCCC(=O)O)NC1=O [Compound 3391] ({CH2CO}-RY(Carboxymethyl)DWV[Bip]Y[Orn][dL][Dab][Cha]VK(Ac)C[Dab][Aun]-OH; thioether N-14) | 0.0088
CC(C)C[C@H]1NC(=O)[C@H](CCCN)NC(=O)[C@H](C(C)C)NC(=O)[C@H](Cc2ccc(-c3ccccc3)cc2)NC(=O)[C@H](C(C)C)NC(=O)[C@H](Cc2c[nH]c3ccccc23)NC(=O)[C@H](CC(=O)O)NC(=O)[C@H](Cc2ccc(OCC(=O)O)cc2)NC(=O)[C@H](Cc2ccc(OCC(=O)O)cc2)NC(=O)CSC[C@@H](C(=O)N[C@@H](CCCCN)C(=O)NCCCCCCCCCCC(=O)O)NC(=O)[C@H](CN)NC(=O)[C@H](C(C)C)NC(=O)[C@H](CC2CCCCC2)NC(=O)[C@H](CCN)NC1=O [Compound 2538] ({CH2CO}-Y(Carboxymethyl)Y(Carboxymethyl)DWV[Bip]V[Orn][dL][Dab][Cha]V[Dap]CK[Aun]-OH; thioether N-14) | 0.0136
CC(=O)NCCCC[C@@H]1NC(=O)[C@H](Cc2ccc(-c3ccccc3)cc2)NC(=O)[C@H](Cc2ccccc2)NC(=O)[C@H](Cc2cccc(C)c2)NC(=O)[C@H](CC(=O)O)NC(=O)[C@H](Cc2ccc(OCC(=O)O)cc2)NC(=O)[C@H](C(C)O)NC(=O)CSC[C@@H](C(=O)N[C@@H](CCN)C(=O)NCCCCCCCCCCC(=O)O)NC(=O)[C@H](C(C)O)NC(=O)[C@H](C(C)C)NC(=O)[C@H](CC2CCCCC2)NC(=O)[C@H](CCN)NC(=O)[C@@H](CC(C)C)NC(=O)[C@H](CCCNC(N)=O)NC1=O (stereo partly drawn) [Compound 3466] ({CH2CO}-[Thr(3ξ)]Y(Carboxymethyl)D[Phe(3-Me)]F[Bip]K(Ac)[Cit][dL][Dab][Cha]V[Thr(3ξ)]C[Dab][Aun]-OH; thioether N-14) | 0.0195
CC(C)C[C@H]1NC(=O)[C@H](CCCN)NC(=O)[C@H](C(C)C)NC(=O)[C@H](Cc2ccc(-c3ccccc3)cc2)NC(=O)[C@H](C(C)C)NC(=O)[C@H](Cc2c[nH]c3ccccc23)NC(=O)[C@H](CC(=O)O)NC(=O)[C@H](Cc2ccc(OCC(=O)O)cc2)NC(=O)[C@H](CN)NC(=O)CSC[C@@H](C(=O)N[C@@H](CCN)C(=O)NCCCCCCCCCCC(=O)O)NC(=O)[C@H]([C@@H](C)O)NC(=O)[C@H](C(C)C)NC(=O)[C@H](CC2CCCCC2)NC(=O)[C@H](Cc2c[nH]cn2)NC1=O [Compound 1075] ({CH2CO}-[Dap]Y(Carboxymethyl)DWV[Bip]V[Orn][dL]H[Cha]VTC[Dab][Aun]-OH; thioether N-14) | 0.0346
CC(C)C[C@H]1NC(=O)[C@H](CCCN)NC(=O)[C@H](C(C)C)NC(=O)[C@H](Cc2ccc(-c3ccccc3)cc2)NC(=O)[C@H](C(C)C)NC(=O)[C@H](Cc2c[nH]c3ccccc23)NC(=O)[C@H](CC(=O)O)NC(=O)[C@H](Cc2ccc(OCC(=O)O)cc2)NC(=O)[C@H](CCCCNC(=N)N)NC(=O)CSC[C@@H](C(=O)NCCOCCOCC(=O)N[C@@H](CCCCN)C(=O)NCCCCCCCCCCCC(=O)O)NC(=O)[C@H](C(C)O)NC(=O)[C@H](C(C)C)NC(=O)[C@H](CC2CCCCC2)NC(=O)[C@H](CCN)NC1=O (stereo partly drawn) [Compound 3165] ({CH2CO}-[hArg]Y(Carboxymethyl)DWV[Bip]V[Orn][dL][Dab][Cha]V[Thr(3ξ)]C[AEEA]K[12Ado]-OH; thioether N-14) | 0.0306
Cc1cccc(C[C@@H]2NC(=O)[C@H](CC(=O)O)NC(=O)[C@H](Cc3ccc(OCC(=O)O)cc3)NC(=O)[C@H](CN)NC(=O)CSC[C@@H](C(=O)N[C@@H](CCCN)C(=O)NCc3ccc(CC(=O)NCCCCCCCCCCC(=O)O)cc3)NC(=O)[C@H](CN)NC(=O)[C@H](C(C)C)NC(=O)[C@H](CC3CCCCC3)NC(=O)[C@H](CCN)NC(=O)[C@@H](CC(C)C)NC(=O)[C@H](CCCN)NC(=O)[C@H](C(C)C)NC(=O)[C@H](Cc3ccc(-c4ccccc4)cc3)NC(=O)[C@H](C(C)C)NC2=O)c1 [Compound 2004] ({CH2CO}-[Dap]Y(Carboxymethyl)D[Phe(3-Me)]V[Bip]V[Orn][dL][Dab][Cha]V[Dap]C[Orn][X6][Aun]-OH; thioether N-14) | 0.0186
Cc1cccc(C[C@@H]2NC(=O)[C@H](CC(=O)O)NC(=O)[C@H](Cc3ccc(OCC(=O)O)cc3)NC(=O)[C@H](C(C)O)NC(=O)CSC[C@@H](C(=O)N[C@@H](CC(N)=O)C(=O)NCCCCCCCCCCC(=O)O)NC(=O)[C@H](CCCNC(N)=O)NC(=O)[C@H](C(C)C)NC(=O)[C@H](CC3CCCCC3)NC(=O)[C@H](CCN)NC(=O)[C@@H](CC(C)C)NC(=O)[C@H](CCCN)NC(=O)[C@H](Cc3ccc(O)cc3)NC(=O)[C@H](Cc3ccc(-c4ccccc4)cc3)NC(=O)[C@H](C(C)C)NC2=O)c1 (stereo partly drawn) [Compound 3426] ({CH2CO}-[Thr(3ξ)]Y(Carboxymethyl)D[Phe(3-Me)]V[Bip]Y[Orn][dL][Dab][Cha]V[Cit]CN[Aun]-OH; thioether N-14) | 0.0107

Now from value to compound:

IC50 [µM] | Structure (SMILES)
0.027 | Cc1cccc(C[C@@H]2NC(=O)[C@H](CC(=O)O)NC(=O)[C@H](Cc3ccc(OCC(=O)O)cc3)NC(=O)[C@H](CCCCNC(=N)N)NC(=O)CSC[C@@H](C(=O)N[C@@H](CCCN)C(=O)N[C@@H](CO)C(=O)NCCCCCCCCCCCC(=O)O)NC(=O)[C@H](C(C)O)NC(=O)[C@H](CCO)NC(=O)[C@H](CC3CCCCC3)NC(=O)[C@H](CCN)NC(=O)[C@@H](CC(C)C)NC(=O)[C@H](CCCN)NC(=O)[C@H](CCCNC(=N)N)NC(=O)[C@H](Cc3ccc(-c4ccccc4)cc3)NC(=O)[C@H](C(C)C)NC2=O)c1 (stereo partly drawn) [Compound 3574] ({CH2CO}-[hArg]Y(Carboxymethyl)D[Phe(3-Me)]V[Bip]R[Orn][dL][Dab][Cha][hSer][Thr(3ξ)]C[Orn]S[12Ado]-OH; thioether N-14)
0.0642 | CC(C)C[C@H]1NC(=O)[C@H](CCCN)NC(=O)[C@H](Cc2ccc(O)cc2)NC(=O)[C@H](Cc2ccc(-c3ccccc3)cc2)NC(=O)[C@H](Cc2ccc(O)cc2)NC(=O)[C@H](Cc2c[nH]c3ccccc23)NC(=O)[C@H](CC(=O)O)NC(=O)[C@H](Cc2ccc(OCC(=O)O)cc2)NC(=O)[C@H](C(C)O)NC(=O)CSC[C@@H](C(=O)N[C@@H](CCN)C(=O)NCCCCCCCCCCC(=O)O)NC(=O)[C@H](CCCCN)NC(=O)[C@H](C(C)O)NC(=O)[C@H](CC2CCCCC2)NC(=O)[C@H](CCN)NC1=O (stereo partly drawn) [Compound 3670] ({CH2CO}-[Thr(3ξ)]Y(Carboxymethyl)DWY[Bip]Y[Orn][dL][Dab][Cha][Thr(3ξ)]KC[Dab][Aun]-OH; thioether N-14)
0.815 | CC(C)C[C@@H]1NC(=O)CSC[C@@H](C(=O)N[C@@H](CCN)C(=O)NCCCCCCCCCCCCCCC(=O)O)NC(=O)[C@H](CCC(=O)O)NC(=O)[C@H](C(C)(C)O)NC(=O)[C@H](CC2CCCCC2)NC(=O)[C@H](CCN)NC(=O)[C@@H](CC(C)C)NC(=O)[C@H](CCCN)NC(=O)[C@H](Cc2ccc(OCC(=O)O)cc2)NC(=O)[C@H](Cc2ccc(-c3ccccc3)cc2)NC(=O)[C@H](Cc2ccc(OCC(=O)O)cc2)NC(=O)[C@H](Cc2cccc(C(F)(F)F)c2)NC(=O)[C@H](CC(=O)O)NC(=O)[C@H](Cc2ccc(OCC(=O)O)cc2)NC1=O [Compound 3874] ({CH2CO}-LY(Carboxymethyl)D[Phe(3-CF3)]Y(Carboxymethyl)[Bip]Y(Carboxymethyl)[Orn][dL][Dab][Cha][Val(3-OH)]EC[Dab]-{NH(CH2)14COOH}; thioether N-14)
0.0709 | CC(=O)NCCCC[C@@H]1NC(=O)[C@H](Cc2ccc(-c3ccccc3)cc2)NC(=O)[C@H](Cc2ccc(O)cc2)NC(=O)[C@H](Cc2cccc(C)c2)NC(=O)[C@H](CC(=O)O)NC(=O)[C@H](Cc2ccc(OCC(=O)O)cc2)NC(=O)[C@H](CCN)NC(=O)CSC[C@@H](C(=O)N[C@@H](CCCN)C(=O)N[C@@H](CO)C(=O)NCCCCCCCCCCC(=O)O)NC(=O)[C@H](CCC(=O)O)NC(=O)[C@H](C(C)O)NC(=O)[C@H](CC2CCCCC2)NC(=O)[C@H](CCN)NC(=O)[C@@H](CC(C)C)NC(=O)[C@H](CCCN)NC1=O (stereo partly drawn) [Compound 3638] ({CH2CO}-[Dab]Y(Carboxymethyl)D[Phe(3-Me)]Y[Bip]K(Ac)[Orn][dL][Dab][Cha][Thr(3ξ)]EC[Orn]S[Aun]-OH; thioether N-14)
